Laboratory results as given in patent publication US20250197406A1, “INDAZOLES AS HEMATOPOIETIC PROGENITOR KINASE 1 (HPK1) INHIBITORS AND METHODS FOR USING SAME” (1ST Biotherapeutics, Inc., priority 2022, published 2025).

biological target: recombinant human HPK1 (Homo sapiens (Human), UniProt Q92918); test: HPK1 kinase assay (Promega ADP-Glo kinase assay); assay type: biochemical; conditions: In vitro activity against HPK1, 5 ng HPK1, MBP substrate, ATP 25 μM, 30° C. 40 minutes
Experimental: HPK1 kinase activity was measured by Promega's ADP-Glo™ kinase assay. In this assay, 5 ng of recombinant human HPK1 (signalchem) is incubated with 5 μL of compounds (0.5% DMSO), 5 μL of MBP (0.5 μg/μl) and 5 μL of ATP (25 μM) in buffer (40 mM Tris, 7.5; 20 mM MgCl2; 0.1 mg/ml BSA; 50 μM DTT.). The assay was started by incubating the reaction mixture in a 96-well plate at 30° C. for 40 minutes. After the incubation, 25 μL ADP-Glo reagent was added and the reaction was incubated at room temperature for 40-min to stop the reaction and degrade residual ATP. The ADP product was then converted to ATP by adding 50 μL per well of detection reagent. Luminescence was detected after 30-min room temperature incubation with the Molecular device I3X plate reader. The IC50 values were calculated from a series of percent inhibition values determined at a range of inhibitor concentration using software routines as implemented in the GraphPad Prism 7 software and SigmaPlot13.0.

Sequence of recombinant human HPK1 (Q92918 whole entry): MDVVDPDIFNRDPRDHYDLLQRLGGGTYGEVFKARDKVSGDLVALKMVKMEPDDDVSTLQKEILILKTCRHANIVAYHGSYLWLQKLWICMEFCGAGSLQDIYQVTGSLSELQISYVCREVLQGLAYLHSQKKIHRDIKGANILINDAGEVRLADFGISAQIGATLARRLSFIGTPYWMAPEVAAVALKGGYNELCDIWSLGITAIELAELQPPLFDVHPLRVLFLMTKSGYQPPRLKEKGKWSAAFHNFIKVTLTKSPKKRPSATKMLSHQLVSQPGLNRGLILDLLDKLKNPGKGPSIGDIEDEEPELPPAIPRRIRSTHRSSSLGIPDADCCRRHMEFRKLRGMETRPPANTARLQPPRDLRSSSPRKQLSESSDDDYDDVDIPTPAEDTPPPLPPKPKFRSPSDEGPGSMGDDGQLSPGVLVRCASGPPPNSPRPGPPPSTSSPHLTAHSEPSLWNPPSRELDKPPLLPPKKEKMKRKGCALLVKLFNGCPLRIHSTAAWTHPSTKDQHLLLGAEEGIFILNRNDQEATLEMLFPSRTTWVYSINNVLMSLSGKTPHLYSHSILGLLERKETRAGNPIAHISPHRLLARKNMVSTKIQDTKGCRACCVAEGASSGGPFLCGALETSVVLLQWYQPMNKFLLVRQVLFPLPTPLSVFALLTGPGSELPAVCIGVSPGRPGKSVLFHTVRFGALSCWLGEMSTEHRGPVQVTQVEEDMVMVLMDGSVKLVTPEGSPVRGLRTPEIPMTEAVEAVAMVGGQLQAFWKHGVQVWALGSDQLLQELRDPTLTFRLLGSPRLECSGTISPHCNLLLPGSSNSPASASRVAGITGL

Row | Compound | IC50 [nM]
1 | CCOC(C)c1c(F)c(C)c(-c2cn3cc(NC(=O)[C@@H]4C[C@@H]4F)nc3cn2)c2cn[nH]c12 (stereo partly drawn) [Example 3, (1S,2S)-N-(6-(7-(1-ethoxyethyl)-6-fluoro-5-methyl-1H-indazol-4-yl)imidazo[1,2-a]pyrazin-2-yl)-2-fluorocyclopropane-1-carboxamide] | 101 to 500
2 | Cc1c(F)c(C2=CC(=O)CC2)c2[nH]ncc2c1-c1cn2cc(NC(=O)[C@@H]3C[C@@H]3F)nc2cn1 [Example 7, (1S,2S)-2-fluoro-N-(6-(6-fluoro-5-methyl-7-(3-oxocyclopent-1-en-1-yl)-1H-indazol-4-yl)imidazo[1,2-a]pyrazin-2-yl)cyclopropane-1-carboxamide] | 101 to 500
3 | CNC(C)c1c(F)c(C)c(-c2cn3cc(NC(=O)[C@@H]4C[C@@H]4F)nc3cn2)c2cn[nH]c12 (stereo partly drawn) [Example 10, (1S,2S)-2-fluoro-N-(6-(6-fluoro-5-methyl-7-(1-(methylamino)ethyl)-1H-indazol-4-yl)imidazo[1,2-a]pyrazin-2-yl)cyclopropane-1-carboxamide] | 101 to 500
4 | Cc1c(F)c(C(C)N(C)C)c2[nH]ncc2c1-c1cn2cc(NC(=O)[C@@H]3C[C@@H]3F)nc2cn1 (stereo partly drawn) [Example 12, (1S,2S)-N-(6-(7-(1-(dimethylamino)ethyl)-6-fluoro-5-methyl-1H-indazol-4-yl)imidazo[1,2-a]pyrazin-2-yl)-2-fluorocyclopropane-1-carboxamide] | 501 to 1000
5 | Cc1c(F)c(C(C)CN(C)C)c2[nH]ncc2c1-c1cn2cc(NC(=O)[C@@H]3C[C@@H]3F)nc2cn1 (stereo partly drawn) [Example 13, (1S,2S)-N-(6-(7-(1-(dimethylamino)propan-2-yl)-6-fluoro-5-methyl-1H-indazol-4-yl)imidazo[1,2-a]pyrazin-2-yl)-2-fluorocyclopropane-1-carboxamide] | 101 to 500
6 | CC(C)N(c1c(F)c(Cl)c(-c2cn3cc(NC(=O)[C@@H]4C[C@@H]4F)nc3cn2)c2cn[nH]c12)C1OC(C(=O)O)C(O)C(O)C1O (stereo partly drawn) [Example 14, 6-((5-chloro-6-fluoro-4-(2-((1S,2S)-2-fluorocyclopropane-1-carboxamido)imidazo[1,2-a]pyrazin-6-yl)-1H-indazol-7-yl)(isopropyl)amino)-3,4,5-trihydroxytetrahydro-2H-pyran-2-carboxylic acid] | < 100
7 | Cc1c(F)c(C2=CC(O)CC2)c2[nH]ncc2c1-c1cn2cc(NC(=O)[C@@H]3C[C@@H]3F)nc2cn1 (stereo partly drawn) [Example 15, (1S,2S)-2-fluoro-N-(6-(6-fluoro-7-(3-hydroxycyclopent-1-en-1-yl)-5-methyl-1H-indazol-4-yl)imidazo[1,2-a]pyrazin-2-yl)cyclopropane-1-carboxamide] | < 100
8 | COC1CCCC1c1c(F)c(C)c(-c2cn3cc(NC(=O)[C@@H]4C[C@@H]4F)nc3cn2)c2cn[nH]c12 (stereo partly drawn) [Example 16, (1S,2S)-2-fluoro-N-(6-(6-fluoro-7-(2-methoxycyclopentyl)-5-methyl-1H-indazol-4-yl)imidazo[1,2-a]pyrazin-2-yl)cyclopropane-1-carboxamide] | < 100
9 | CN(C)c1c(F)c(C(F)F)c(-c2cn3cc(NC(=O)[C@@H]4C[C@@H]4F)nc3cn2)c2cn[nH]c12 [Example 17, (1S,2S)-N-(6-(5-(difluoromethyl)-7-(dimethylamino)-6-fluoro-1H-indazol-4-yl)imidazo[1,2-a]pyrazin-2-yl)-2-fluorocyclopropane-1-carboxamide] | < 100
10 | COC(=O)C1OC(N(c2c(F)c(Cl)c(-c3cn4cc(NC(=O)[C@@H]5C[C@@H]5F)nc4cn3)c3cn[nH]c23)C(C)C)C(OC(C)=O)C(OC(C)=O)C1OC(C)=O (stereo partly drawn) [Example 18, 2-((5-chloro-6-fluoro-4-(2-((1S,2S)-2-fluorocyclopropane-1-carboxamido)imidazo[1,2-a]pyrazin-6-yl)-1H-indazol-7-yl)(isopropyl)amino)-6-(methoxycarbonyl)tetrahydro-2H-pyran-3,4,5-triyl triacetate] | 101 to 500
11 | O=C(Nc1cn2cc(-c3c(C(F)F)c(F)c(C(O)C4CC4)c4[nH]ncc34)ncc2n1)[C@@H]1C[C@@H]1F (stereo partly drawn) [Example 19, (1S,2S)-N-(6-(7-(cyclopropyl(hydroxy)methyl)-5-(difluoromethyl)-6-fluoro-1H-indazol-4-yl)imidazo[1,2-a]pyrazin-2-yl)-2-fluorocyclopropane-1-carboxamide] | < 100
12 | CC(C)Nc1c(F)c(Cl)c(-c2cn3cc(NC(=O)[C@@H]4C[C@@H]4C(=O)O)nc3cn2)c2cn[nH]c12 [Example 20, (1S,2R)-2-((6-(5-chloro-6-fluoro-7-(isopropylamino)-1H-indazol-4-yl)imidazo[1,2-a]pyrazin-2-yl)carbamoyl)cyclopropane-1-carboxylic acid] | < 100
13 | Cc1c(F)c(C(C2CC2)N2C(=O)c3ccccc3C2=O)c2[nH]ncc2c1-c1cn2cc(NC(=O)[C@@H]3C[C@@H]3F)nc2cn1 (stereo partly drawn) [Example 21, (1S,2S)-N-(6-(7-(cyclopropyl(1,3-dioxoisoindolin-2-yl)methyl)-6-fluoro-5-methyl-1H-indazol-4-yl)imidazo[1,2-a]pyrazin-2-yl)-2-fluorocyclopropane-1-carboxamid] | < 100
14 | Cc1c(F)c(C(C)CN2C(=O)c3ccccc3C2=O)c2[nH]ncc2c1-c1cn2cc(NC(=O)[C@@H]3C[C@@H]3F)nc2cn1 (stereo partly drawn) [Example 22, (1S,2S)-N-(6-(7-(1-(1,3-dioxoisoindolin-2-yl)propan-2-yl)-6-fluoro-5-methyl-1H-indazol-4-yl)imidazo[1,2-a]pyrazin-2-yl)-2-fluorocyclopropane-1-carboxamide] | < 100
15 | Cc1c(F)c(C(N)C2CC2)c2[nH]ncc2c1-c1cn2cc(NC(=O)[C@@H]3C[C@@H]3F)nc2cn1 (stereo partly drawn) [Example 23, (1S,2S)-N-(6-(7-(amino(cyclopropyl)methyl)-6-fluoro-5-methyl-1H-indazol-4-yl)imidazo[1,2-a]pyrazin-2-yl)-2-fluorocyclopropane-1-carboxamide] | < 100
16 | Cc1c(F)c(C(C)CN)c2[nH]ncc2c1-c1cn2cc(NC(=O)[C@@H]3C[C@@H]3F)nc2cn1 (stereo partly drawn) [Example 24, (1S,2S)-N-(6-(7-(1-aminopropan-2-yl)-6-fluoro-5-methyl-1H-indazol-4-yl)imidazo[1,2-a]pyrazin-2-yl)-2-fluorocyclopropane-1-carboxamide] | < 100
17 | Cc1c(F)c(C(C)N)c2[nH]ncc2c1-c1cn2cc(NC(=O)[C@@H]3C[C@@H]3F)nc2cn1 (stereo partly drawn) [Example 25, (1S,2S)-N-(6-(7-(1-aminoethyl)-6-fluoro-5-methyl-1H-indazol-4-yl)imidazo[1,2-a]pyrazin-2-yl)-2-fluorocyclopropane-1-carboxamide] | 101 to 500

Second part, the molecule after the results:

Row | IC50 [nM] | Compound
18 | < 100 | Cc1c(F)c(C(O)C2CC2)c2[nH]ncc2c1-c1cn2cc(NC(=O)[C@@H]3C[C@@H]3F)nc2cn1 (stereo partly drawn) [Example 1, (1S,2S)-N-(6-(7-(cyclopropyl(hydroxy)methyl)-6-fluoro-5-methyl-1H-indazol-4-yl)imidazo[1,2-a]pyrazin-2-yl)-2-fluorocyclopropane-1-carboxamide]
19 | < 100 | COC(c1c(F)c(C)c(-c2cn3cc(NC(=O)[C@@H]4C[C@@H]4F)nc3cn2)c2cn[nH]c12)C1CC1 (stereo partly drawn) [Example 2, (1S,2S)-N-(6-(7-(cyclopropyl(methoxy)methyl)-6-fluoro-5-methyl-1H-indazol-4-yl)imidazo[1,2-a]pyrazin-2-yl)-2-fluorocyclopropane-1-carboxamide]
20 | < 100 | COCC(C)c1c(F)c(C)c(-c2cn3cc(NC(=O)[C@@H]4C[C@@H]4F)nc3cn2)c2cn[nH]c12 (stereo partly drawn) [Example 4, (1S,2S)-2-fluoro-N-(6-(6-fluoro-7-(1-methoxypropan-2-yl)-5-methyl-1H-indazol-4-yl)imidazo[1,2-a]pyrazin-2-yl)cyclopropane-1-carboxamide]
21 | < 100 | Cc1c(F)c(C(C)C(F)F)c2[nH]ncc2c1-c1cn2cc(NC(=O)[C@@H]3C[C@@H]3F)nc2cn1 (stereo partly drawn) [Example 5, (1S,2S)-N-(6-(7-(1,1-difluoropropan-2-yl)-6-fluoro-5-methyl-1H-indazol-4-yl)imidazo[1,2-a]pyrazin-2-yl)-2-fluorocyclopropane-1-carboxamide]
22 | < 100 | Cc1c(F)c(C2CCOC2)c2[nH]ncc2c1-c1cn2cc(NC(=O)[C@@H]3C[C@@H]3F)nc2cn1 (stereo partly drawn) [Example 6, (1S,2S)-2-fluoro-N-(6-(6-fluoro-5-methyl-7-(tetrahydrofuran-3-yl)-1H-indazol-4-yl)imidazo[1,2-a]pyrazin-2-yl)cyclopropane-1-carboxamide]
23 | < 100 | Cc1c(F)c(C(C)CO)c2[nH]ncc2c1-c1cn2cc(NC(=O)[C@@H]3C[C@@H]3F)nc2cn1 (stereo partly drawn) [Example 8, (1S,2S)-2-fluoro-N-(6-(6-fluoro-7-(1-hydroxypropan-2-yl)-5-methyl-1H-indazol-4-yl)imidazo[1,2-a]pyrazin-2-yl)cyclopropane-1-carboxamide]
24 | < 100 | Cc1c(F)c(C2CCCC2O)c2[nH]ncc2c1-c1cn2cc(NC(=O)[C@@H]3C[C@@H]3F)nc2cn1 (stereo partly drawn) [Example 9, (1S,2S)-2-fluoro-N-(6-(6-fluoro-7-(2-hydroxycyclopentyl)-5-methyl-1H-indazol-4-yl)imidazo[1,2-a]pyrazin-2-yl)cyclopropane-1-carboxamide]
25 | < 100 | Cc1c(F)c(C2=CCCC2)c2[nH]ncc2c1-c1cn2cc(NC(=O)[C@@H]3C[C@@H]3F)nc2cn1 [Example 11, (1S,2S)-N-(6-(7-(cyclopent-1-en-1-yl)-6-fluoro-5-methyl-1H-indazol-4-yl)imidazo[1,2-a]pyrazin-2-yl)-2-fluorocyclopropane-1-carboxamide]
